The structures appear in SMILES notation. In brackets after ≈: the same amount, converted by molar mass. Residues, ends and D or L forms follow the SMILES beside them. A value given as a limit tells only on which side of the number the result lay.

Holding throughout (assay type): cell-based
Holding throughout (settings): broth microdilution in MHB, peptide 128 down to 0.5 µg/mL, 20–24 h at 37 °C, no visible growth; range of three independent experiments

Assay [1] concerns Salmonella enterica serovar Enteritidis (human clinical isolate). The procedure: (§1) Bacteria were grown overnight at 37 °C in Mueller-Hinton Broth (MHB; Sigma-Aldrich, St. Louis. MO, USA) in a shaking incubator and aliquoted into cryovials with a 50% glycerol solution in a 1:1 ratio. No additives were added to the MHB during the growth of bacterial isolates. Glycerol stocks were stored at −80 °C.
(§2) The antimicrobial activity of the putative AMPs was determined by a broth microdilution assay as described by the Clinical and Laboratory Standards Institute, with the published adaptations for testing of cationic peptides. Escherichia coli 25922 and Staphylococcus aureus 29213 isolates were purchased from the American Type Culture Collection (ATCC; Manassas, VA, USA). A human clinical isolate of Salmonella enterica serovar Enteritidis was provided by the BC Centre for Disease Control. Bacteria from stocks stored at −80 °C were streaked onto nonselective Columbia blood agar with 5% sheep blood (Oxoid) and incubated overnight at 37 °C. Next, 2–4 colonies were streaked onto a new agar plate to ensure uniform health of colonies used in the broth microdilution assay. Isolated colonies were suspended in MHB and the optical density was measured with a spectrophotometer to create an initial inoculum concentration of approximately 1 × 10^8 cfu/mL. The inoculum was diluted 1:250 to a final concentration of 2–8 × 10^5 cfu/mL, which was confirmed by performing a Total Viability Count (TVC). The TVC consisted of plating a 1:1000 dilution of the final inoculum on nonselective media and was also used to confirm the health and purity of the inoculum in each trial.
(§3) Lyophilized 80 µg peptide aliquots synthesized by GenScript (Piscataway, NJ, USA) were resuspended to 1.28 mg/mL with UltraPure water (Thermo Fisher Scientific, Waltham, MA, USA) and serially diluted in polypropylene 96-well microtiter plates (Greiner Bio-One #650261, Kremsmünster, Austria) from 128 down to 0.5 µg/mL. Two columns per plate were reserved for growth and sterility controls. Inoculum was added to the wells containing the peptide and the growth control. Plates were incubated for 20–24 h at 37 °C. The minimum inhibitory concentration (MIC) was determined as the lowest peptide concentration where there was no visible bacterial growth.

Assay [2] relates to Escherichia coli ATCC 25922. The procedure:
as §1, §2, §3

Assay [3] deals with Staphylococcus aureus ATCC 29213. The procedure:
as §1, §2, §3

Take `CC[C@H](C)[C@H](NC(=O)CNC(=O)[C@H](CCCNC(=N)N)NC(=O)[C@H](CCCCN)NC(=O)[C@H](CCCCN)NC(=O)[C@H](CCCNC(=N)N)NC(=O)[C@@H]1CCCN1C(=O)[C@@H](NC(=O)[C@H](CCSC)NC(=O)[C@H](CC(C)C)NC(=O)[C@@H](N)CCCCN)[C@@H](C)CC)C(=O)N[C@@H](Cc1ccccc1)C(=O)NCC(=O)NCC(=O)N[C@@H](CC(C)C)C(=O)N[C@@H](CC(C)C)C(=O)N[C@@H](CCCCN)C(=O)N[C@H](C(=O)NCC(=O)N[C@@H](CCCCN)C(=O)N[C@@H](CCCCN)C(=O)N[C@H](C(=O)N[C@@H](C)C(=O)N[C@@H](CS)C(=O)NCC(=O)N[C@@H](CC(C)C)C(=O)N[C@@H](CO)C(=O)NCC(=O)N[C@@H](CC(C)C)C(=O)N[C@@H](CS)C(=O)O)[C@@H](C)CC)C(C)C` [OdTo4] (H-KLMIPRKKRGIFGGLLKVGKKIACGLSGLC-OH; N-terminus and C-terminus assumed): the “MIC, Salmonella Enteritidis” value in assay [1] is on record as 16 µg/mL (≈ 5.02 µM). For the same compound, the “MIC, E. coli ATCC 25922” value in assay [2] lay within 8 to 16 µg/mL. Further, in assay [3], the “MIC, S. aureus ATCC 29213” value is recorded as 16 µg/mL (≈ 5.02 µM).

Take `CC(C)C[C@H](NC(=O)CNC(=O)[C@@H](NC(=O)[C@@H](NC(=O)CNC(=O)[C@H](CS)NC(=O)[C@H](CC(C)C)NC(=O)[C@@H](NC(=O)[C@H](CCCCN)NC(=O)[C@H](CCCCN)NC(=O)CNC(=O)[C@@H](NC(=O)CNC(=O)[C@H](CC(C)C)NC(=O)[C@@H](NC(=O)[C@H](CCCCN)NC(=O)CNC(=O)[C@H](CC(C)C)NC(=O)[C@H](CC(C)C)NC(=O)CN)C(C)C)C(C)C)C(C)C)C(C)C)[C@@H](C)O)C(=O)N[C@@H](CS)C(=O)O` [PeNi1] (H-GLLGKVLGVGKKVLCGVTGLC-OH): in assay [1], the “MIC, Salmonella Enteritidis” value fell in the range of 8 to 16 µg/mL. For the same compound, in assay [2], the “MIC, E. coli ATCC 25922” value was 4 µg/mL (≈ 1.99 µM). In assay [3], the “MIC, S. aureus ATCC 29213” value worked out at 4 µg/mL (≈ 1.99 µM).

With `CC(C)C[C@H](NC(=O)CNC(=O)[C@H](CO)NC(=O)[C@@H](NC(=O)[C@@H](NC(=O)[C@H](CS)NC(=O)[C@H](CC(C)C)NC(=O)[C@@H](NC(=O)[C@H](CCCCN)NC(=O)[C@H](CCCCN)NC(=O)CNC(=O)[C@@H](NC(=O)CNC(=O)[C@H](CC(C)C)NC(=O)[C@@H](NC(=O)[C@H](CCCCN)NC(=O)CNC(=O)[C@H](CC(C)C)NC(=O)[C@H](CC(C)C)NC(=O)CN)C(C)C)C(C)C)C(C)C)C(C)C)C(C)C)C(=O)N[C@@H](CS)C(=O)O` [PeNi2] (H-GLLGKVLGVGKKVLCVVSGLC-OH; N-terminus and C-terminus assumed), the “MIC, Salmonella Enteritidis” value in assay [1] fell in the range of 16 to 32 µg/mL. Also, the “MIC, E. coli ATCC 25922” value in assay [2] came out at 4 µg/mL (≈ 1.96 µM). The “MIC, S. aureus ATCC 29213” value in assay [3] is recorded as 4 µg/mL (≈ 1.96 µM).

As to `CC(C)C[C@H](NC(=O)CN)C(=O)N[C@@H](CC(C)C)C(=O)NCC(=O)N[C@@H](CCCCN)C(=O)N[C@H](C(=O)N[C@@H](CC(C)C)C(=O)NCC(=O)N[C@H](C(=O)NCC(=O)N[C@@H](CCCCN)C(=O)N[C@@H](CCCCN)C(=O)N[C@H](C(=O)N[C@@H](CC(C)C)C(=O)N[C@@H](CS)C(=O)NCC(=O)N[C@H](C(=O)N[C@H](C(=O)NCC(=O)N[C@@H](CCCNC(=N)N)C(=O)N[C@@H](CCC(=O)O)C(=O)N[C@@H](CCCNC(=N)N)C(=O)N[C@@H](CS)C(=O)N[C@@H](CCC(N)=O)C(=O)O)[C@@H](C)O)C(C)C)C(C)C)C(C)C)C(C)C` [PeNi5] (H-GLLGKVLGVGKKVLCGVTGRERCQ-OH; N-terminus and C-terminus assumed), the “MIC, Salmonella Enteritidis” value in assay [1] amounted to 64 µg/mL (≈ 25.9 µM). Besides, the “MIC, E. coli ATCC 25922” value in assay [2] is listed as 32 µg/mL (≈ 12.9 µM). The “MIC, S. aureus ATCC 29213” value in assay [3] was above 128 µg/mL.

As for `CC[C@H](C)[C@H](NC(=O)[C@@H](N)C(C)C)C(=O)N1CCC[C@H]1C(=O)N[C@@H](Cc1ccccc1)C(=O)N[C@H](C(=O)N[C@@H](C)C(=O)N[C@@H](CO)C(=O)N[C@H](C(=O)N[C@@H](C)C(=O)N[C@@H](C)C(=O)N[C@@H](CCC(=O)O)C(=O)N[C@@H](CCSC)C(=O)N[C@@H](CCSC)C(=O)N[C@@H](Cc1c[nH]cn1)C(=O)N[C@@H](Cc1c[nH]cn1)C(=O)N[C@H](C(=O)N[C@@H](Cc1ccc(O)cc1)C(=O)N[C@@H](CS)C(=O)N[C@@H](C)C(=O)N[C@@H](C)C(=O)N[C@@H](CO)C(=O)N[C@@H](CCCCN)C(=O)N[C@@H](CCCNC(=N)N)C(=O)N[C@@H](CS)C(=O)N[C@@H](CCCCN)C(=O)N[C@@H](CC(N)=O)C(=O)O)C(C)C)C(C)C)C(C)C` [PeNi7] (H-VIPFVASVAAEMMHHVYCAASKRCKN-OH; N-terminus and C-terminus assumed), the “MIC, Salmonella Enteritidis” value in assay [1] was above 128 µg/mL. Moreover, the “MIC, E. coli ATCC 25922” value in assay [2] was 128 µg/mL (≈ 44.7 µM). Also, in assay [3], the “MIC, S. aureus ATCC 29213” value is above 128 µg/mL.

In the case of `CC[C@H](C)[C@H](NC(=O)CN)C(=O)N[C@@H](CC(C)C)C(=O)N[C@@H](CC(C)C)C(=O)N[C@@H](CC(N)=O)C(=O)N[C@H](C(=O)N[C@@H](CC(C)C)C(=O)N[C@@H](CCCCN)C(=O)NCC(=O)N[C@@H](C)C(=O)N[C@@H](C)C(=O)N[C@@H](CCCCN)C(=O)N[C@@H](CC(N)=O)C(=O)N[C@H](C(=O)N[C@@H](C)C(=O)NCC(=O)N[C@H](C(=O)N[C@@H](CC(C)C)C(=O)N[C@@H](CC(C)C)C(=O)N[C@@H](CC(=O)O)C(=O)N[C@@H](CCCCN)C(=O)N[C@@H](CC(C)C)C(=O)N[C@@H](CCCCN)C(=O)N[C@@H](CS)C(=O)N[C@@H](CCCCN)C(=O)N[C@H](C(=O)N[C@H](C(=O)NCC(=O)NCC(=O)N[C@@H](CS)C(=O)O)[C@@H](C)O)[C@@H](C)CC)C(C)C)C(C)C)[C@@H](C)O` [PeNi8] (H-GILLNTLKGAAKNVAGVLLDKLKCKITGGC-OH; N-terminus and C-terminus assumed), the “MIC, Salmonella Enteritidis” value in assay [1] came to 64 µg/mL (≈ 21.2 µM). The “MIC, E. coli ATCC 25922” value in assay [2] was 8 µg/mL (≈ 2.66 µM). Further, the “MIC, S. aureus ATCC 29213” value in assay [3] fell in the range of 4 to 8 µg/mL.

With `CC[C@H](C)[C@H](NC(=O)[C@H](CCCCN)NC(=O)CNC(=O)[C@H](CC(C)C)NC(=O)[C@H](CC(C)C)NC(=O)CN)C(=O)N[C@@H](CC(C)C)C(=O)NCC(=O)N[C@H](C(=O)NCC(=O)N[C@@H](CCCCN)C(=O)N[C@@H](CCCCN)C(=O)N[C@H](C(=O)N[C@@H](CC(C)C)C(=O)N[C@@H](CS)C(=O)NCC(=O)N[C@H](C(=O)N[C@@H](CO)C(=O)NCC(=O)N[C@@H](CC(C)C)C(=O)N[C@@H](CS)C(=O)O)C(C)C)C(C)C)C(C)C` [PeNi9] (H-GLLGKILGVGKKVLCGVSGLC-OH), the “MIC, Salmonella Enteritidis” value in assay [1] lay in the range of 8 to 16 µg/mL. The “MIC, E. coli ATCC 25922” value in assay [2] was in the range of 2 to 4 µg/mL. For the same compound, the “MIC, S. aureus ATCC 29213” value in assay [3] fell in the range of 4 to 8 µg/mL.

In the case of `CC[C@H](C)[C@H](NC(=O)CNC(=O)[C@H](C)NC(=O)[C@@H](NC(=O)[C@H](CC(N)=O)NC(=O)[C@H](CCCCN)NC(=O)[C@H](C)NC(=O)[C@H](C)NC(=O)CNC(=O)[C@H](CCCCN)NC(=O)[C@@H](NC(=O)[C@@H](NC(=O)[C@H](CC(=O)O)NC(=O)[C@H](CC(C)C)NC(=O)[C@H](CC(C)C)NC(=O)[C@H](CC(C)C)NC(=O)CN)[C@@H](C)O)C(C)C)C(C)C)C(=O)N[C@@H](CC(C)C)C(=O)N[C@@H](CC(C)C)C(=O)N[C@@H](CC(N)=O)C(=O)N[C@@H](CCCCN)C(=O)N[C@@H](CC(C)C)C(=O)N[C@@H](CCCCN)C(=O)N[C@@H](CS)C(=O)N[C@@H](CCCCN)C(=O)N[C@H](C(=O)N[C@H](C(=O)NCC(=O)N[C@@H](CC(=O)O)C(=O)N[C@@H](CS)C(=O)O)[C@@H](C)O)C(C)C` [PeNi10] (H-GLLLDTVKGAAKNVAGILLNKLKCKVTGDC-OH; N-terminus and C-terminus assumed), the “MIC, Salmonella Enteritidis” value in assay [1] is 64 to 128 µg/mL. Also, in assay [2], the “MIC, E. coli ATCC 25922” value was 8 µg/mL (≈ 2.62 µM). Also, in assay [3], the “MIC, S. aureus ATCC 29213” value fell in the range of 16 to 32 µg/mL.

As to `CC[C@H](C)[C@H](NC(=O)CN)C(=O)N[C@@H](CC(C)C)C(=O)N[C@H](C(=O)N[C@@H](CC(=O)O)C(=O)N[C@H](C(=O)N[C@@H](CC(C)C)C(=O)N[C@@H](CCCCN)C(=O)NCC(=O)N[C@@H](C)C(=O)N[C@@H](C)C(=O)N[C@@H](CCCCN)C(=O)N[C@@H](CC(N)=O)C(=O)N[C@H](C(=O)N[C@@H](C)C(=O)NCC(=O)N[C@H](C(=O)N[C@@H](CC(C)C)C(=O)N[C@@H](CC(C)C)C(=O)N[C@@H](CC(=O)O)C(=O)N[C@@H](CCCCN)C(=O)N[C@@H](CC(C)C)C(=O)N[C@@H](CCCCN)C(=O)N[C@@H](CS)C(=O)N[C@@H](CCCCN)C(=O)N[C@H](C(=O)N[C@H](C(=O)NCC(=O)NCC(=O)N[C@@H](CS)C(=O)O)[C@@H](C)O)[C@@H](C)CC)C(C)C)C(C)C)[C@@H](C)O)[C@@H](C)O` [PeNi11] (H-GILTDTLKGAAKNVAGVLLDKLKCKITGGC-OH; N-terminus and C-terminus assumed), the “MIC, Salmonella Enteritidis” value in assay [1] stood at 128 µg/mL (≈ 42.6 µM). Further, the “MIC, E. coli ATCC 25922” value in assay [2] is 8 to 16 µg/mL. Moreover, the “MIC, S. aureus ATCC 29213” value in assay [3] was 64 µg/mL (≈ 21.3 µM).

The record behind these values is PMC9774241, “Associating Biological Activity and Predicted Structure of Antimicrobial Peptides from Amphibians and Insects” (Antibiotics, 2022).
